Key:
ACC-201 human GC cells = test: Cell cycle analysis (PI, flow cytometry); assay type: cell-based; conditions: 72 h
Protocol: (§1) Human GC cells ACC-201, AGS, MKN-74 and NCI-N87 were seeded in 6-well plates and allowed to adhere overnight. On the following day, the growth medium was removed, and the cells were treated with indicated concentrations of MGN (10–40 µg/mL) for 72 h. After that, the cells were washed with phosphate-buffered saline (PBS) and fixed in 70% ethanol at 4 °C overnight. Then, the cells were washed with PBS and stained with propidium iodide, utilizing PI/RNase Staining Buffer (BD Biosciences, Heidelberg, Germany) for 15 min in the dark. Cell distribution in different stages of the cell cycle was performed through the use of the FACS CaliburTM flow cytometer (BD Biosciences, Mountain View, CA, USA).

AGS human GC cells = test: Cell cycle analysis (PI, flow cytometry); assay type: cell-based; conditions: 72 h
Protocol: as §1

MKN-74 human GC cells = test: Cell cycle analysis (PI, flow cytometry); assay type: cell-based; conditions: 72 h
Protocol: as §1

NCI-N87 human GC cells = test: Cell cycle analysis (PI, flow cytometry); assay type: cell-based; conditions: 72 h
Protocol: as §1

[1] = system: human GC cells ACC-201, AGS, MKN-74 and NCI-N87; test: BrdU incorporation assay; assay type: cell-based; conditions: MGN 2–75 μg/mL, 72 h, four GC cell lines
Protocol: The human GC cells ACC-201, AGS, MKN-74 and NCI-N87 were placed in 96-well plates and allowed to adhere overnight. On the following day, the growth medium was replaced with fresh medium, and the cells were exposed to a series of tested MGN dilutions (2.0–75 µg/mL) for 72 h. Cell proliferation was quantified according to the manufacturer’s instruction, Cell Proliferation ELISA, BrdU (colorimetric) (Biorbyt, Cambridge, UK). Briefly, BrdU reagent was added to the medium, followed by Fixative/Denaturing Solution for 30 min at room temperature. Incorporated BrdU in the place of thymidine in the cell’s DNA under division was detected using mouse monoclonal anti-BrdU for 1 h at room temperature, followed by horseradish peroxidase (HRP)-linked goat anti-mouse IgG secondary antibody and tetramethylbenzidine (a HRP substrate) for 30 min at room temperature. The absorbance was measured at 450 nm using Infinite M200 Pro microplate reader (Tecan, Männedorf, Switzerland). Results are presented as a percentage of BrdU incorporation vs. control cells (indicated as 100%).

zebrafish larvae = test: Locomotor activity assay in larval zebrafish; assay type: in vivo; conditions: MGN 100, 175 or 250 µg/mL, after 95 h incubation
Protocol: Locomotor activity was examined to determine whether chronic MGN exposure may induce neurotoxic effects in fish. Noldusapparatus (EthoVision XT, Wageningen, The Netherlands) was used for this purpose. After 95 h of incubation in different doses of MGN (100, 175 or 250 µg/mL), each larva was placed individually in the wells of a 48-well plate filled with 300 µL of the medium. After 15 min of habituation, larval activity was tracked in the light phase for a period of 30 min. The distance covered by each larva in millimeters (mm) was assessed.

COc1ccc2c(c1O)-c1c(O)c(OC)cc3c1[C@H](C2)[N+](C)(C)CC3 [MGN, magnoflorine]
cells in G1 phase (ACC-201 human GC cells; ACC-201, MGN 10 µg/mL): 62.76% ± 2.434 | cells in G2 phase (ACC-201 human GC cells; ACC-201, MGN 10 µg/mL): 9.96% ± 3.707 | cells in S phase (ACC-201 human GC cells; ACC-201, MGN 10 µg/mL): 8.74% ± 3.423 | cells in subG1 phase (ACC-201 human GC cells; ACC-201, MGN 10 µg/mL): 18.52% ± 1.414 | cells in G1 phase (ACC-201 human GC cells; ACC-201, MGN 20 µg/mL): 57.23% ± 2.112 | cells in G2 phase (ACC-201 human GC cells; ACC-201, MGN 20 µg/mL): 8.34% ± 4.237 | cells in S phase (ACC-201 human GC cells; ACC-201, MGN 20 µg/mL): 8.33% ± 1.647 | cells in subG1 phase (ACC-201 human GC cells; ACC-201, MGN 20 µg/mL): 26.06% ± 1.399 | cells in G1 phase (ACC-201 human GC cells; ACC-201, MGN 30 µg/mL): 49.55% ± 1.820 | cells in G2 phase (ACC-201 human GC cells; ACC-201, MGN 30 µg/mL): 5.87% ± 5.399 | cells in S phase (ACC-201 human GC cells; ACC-201, MGN 30 µg/mL): 6.16% ± 1.340 | cells in subG1 phase (ACC-201 human GC cells; ACC-201, MGN 30 µg/mL): 38.50% ± 1.886 | cells in G1 phase (ACC-201 human GC cells; ACC-201, MGN 40 µg/mL): 39.27% ± 3.408 | cells in G2 phase (ACC-201 human GC cells; ACC-201, MGN 40 µg/mL): 3.74% ± 1.615 | cells in S phase (ACC-201 human GC cells; ACC-201, MGN 40 µg/mL): 5.61% ± 1.874 | cells in subG1 phase (ACC-201 human GC cells; ACC-201, MGN 40 µg/mL): 51.43% ± 2.072 | cells in G1 phase (AGS human GC cells; MGN 10 µg/mL): 58.09% ± 8.195 | cells in G2 phase (AGS human GC cells; MGN 10 µg/mL): 23.35% ± 12.110 | cells in S phase (AGS human GC cells; MGN 10 µg/mL): 17.62% ± 3.599 | cells in subG1 phase (AGS human GC cells; MGN 10 µg/mL): 1.19% ± 2.437 | cells in G1 phase (AGS human GC cells; MGN 20 µg/mL): 53.06% ± 12.980 | cells in G2 phase (AGS human GC cells; MGN 20 µg/mL): 24.06% ± 16.000 | cells in S phase (AGS human GC cells; MGN 20 µg/mL): 21.07% ± 2.593 | cells in subG1 phase (AGS human GC cells; MGN 20 µg/mL): 2.17% ± 2.519 | cells in G1 phase (AGS human GC cells; MGN 30 µg/mL): 43.08% ± 14.330 | cells in G2 phase (AGS human GC cells; MGN 30 µg/mL): 31.77% ± 17.630 | cells in S phase (AGS human GC cells; MGN 30 µg/mL): 21.55% ± 2.265 | cells in subG1 phase (AGS human GC cells; MGN 30 µg/mL): 2.17% ± 3.000 | cells in G1 phase (AGS human GC cells; MGN 40 µg/mL): 38.15% ± 13.350 | cells in G2 phase (AGS human GC cells; MGN 40 µg/mL): 39.34% ± 15.720 | cells in S phase (AGS human GC cells; MGN 40 µg/mL): 19.89% ± 2.653 | cells in subG1 phase (AGS human GC cells; MGN 40 µg/mL): 2.98% ± 2.448 | effect on cell cycle progression (AGS human GC cells; MGN 10–40 µg/mL): induced the G2/M phase arrest | cells in G1 phase (MKN-74 human GC cells; MKN-74, MGN 10 µg/mL): 69.07% ± 1.886 | cells in G2 phase (MKN-74 human GC cells; MKN-74, MGN 10 µg/mL): 16.23% ± 1.928 | cells in S phase (MKN-74 human GC cells; MKN-74, MGN 10 µg/mL): 13.36% ± 0.622 | cells in subG1 phase (MKN-74 human GC cells; MKN-74, MGN 10 µg/mL): 1.60% ± 2.688 | cells in G1 phase (MKN-74 human GC cells; MKN-74, MGN 20 µg/mL): 73.81% ± 4.227 | cells in G2 phase (MKN-74 human GC cells; MKN-74, MGN 20 µg/mL): 14.14% ± 2.076 | cells in S phase (MKN-74 human GC cells; MKN-74, MGN 20 µg/mL): 9.97% ± 1.867 | cells in subG1 phase (MKN-74 human GC cells; MKN-74, MGN 20 µg/mL): 2.28% ± 2.818 | cells in G1 phase (MKN-74 human GC cells; MKN-74, MGN 30 µg/mL): 65.90% ± 3.533 | cells in G2 phase (MKN-74 human GC cells; MKN-74, MGN 30 µg/mL): 22.92% ± 2.455 | cells in S phase (MKN-74 human GC cells; MKN-74, MGN 30 µg/mL): 7.72% ± 1.822 | cells in subG1 phase (MKN-74 human GC cells; MKN-74, MGN 30 µg/mL): 3.59% ± 2.787 | cells in G1 phase (MKN-74 human GC cells; MKN-74, MGN 40 µg/mL): 50.20% ± 5.303 | cells in G2 phase (MKN-74 human GC cells; MKN-74, MGN 40 µg/mL): 35.94% ± 6.691 | cells in S phase (MKN-74 human GC cells; MKN-74, MGN 40 µg/mL): 8.25% ± 2.280 | cells in subG1 phase (MKN-74 human GC cells; MKN-74, MGN 40 µg/mL): 5.60% ± 1.002 | effect on cell cycle progression (MKN-74 human GC cells; MKN-74, MGN 10 and 20 µg/mL vs. 40 µg/mL): induced G1/S or G2/M phase cell cycle arrest | cells in G1 phase (NCI-N87 human GC cells; NCI-N87, MGN 10 µg/mL): 69.39% ± 3.658 | cells in G2 phase (NCI-N87 human GC cells; NCI-N87, MGN 10 µg/mL): 16.52% ± 2.770 | cells in S phase (NCI-N87 human GC cells; NCI-N87, MGN 10 µg/mL): 11.81% ± 3.808 | cells in subG1 phase (NCI-N87 human GC cells; NCI-N87, MGN 10 µg/mL): 2.41% ± 2.189 | cells in G1 phase (NCI-N87 human GC cells; NCI-N87, MGN 20 µg/mL): 70.17% ± 2.905 | cells in G2 phase (NCI-N87 human GC cells; NCI-N87, MGN 20 µg/mL): 15.56% ± 2.419 | cells in S phase (NCI-N87 human GC cells; NCI-N87, MGN 20 µg/mL): 10.44% ± 6.685 | cells in subG1 phase (NCI-N87 human GC cells; NCI-N87, MGN 20 µg/mL): 3.93% ± 2.591 | cells in G1 phase (NCI-N87 human GC cells; NCI-N87, MGN 30 µg/mL): 67.45% ± 3.535 | cells in G2 phase (NCI-N87 human GC cells; NCI-N87, MGN 30 µg/mL): 16.21% ± 1.874 | cells in S phase (NCI-N87 human GC cells; NCI-N87, MGN 30 µg/mL): 10.12% ± 7.739 | cells in subG1 phase (NCI-N87 human GC cells; NCI-N87, MGN 30 µg/mL): 6.33% ± 2.772 | cells in G1 phase (NCI-N87 human GC cells; NCI-N87, MGN 40 µg/mL): 64.37% ± 3.651 | cells in G2 phase (NCI-N87 human GC cells; NCI-N87, MGN 40 µg/mL): 17.06% ± 2.426 | cells in S phase (NCI-N87 human GC cells; NCI-N87, MGN 40 µg/mL): 9.24% ± 5.603 | cells in subG1 phase (NCI-N87 human GC cells; NCI-N87, MGN 40 µg/mL): 9.47% ± 1.163 | effect on cell cycle progression (NCI-N87 human GC cells; NCI-N87, MGN 10–40 µg/mL): Minor changes in cell cycle progression | BrdU-labeled DNA (proliferation) [1]: dose-dependent decrease | locomotor activity: distance travelled within 30 min vs control (zebrafish larvae): No differences between the tested groups
